What was measured:
CHFR-PARP1 interaction = experiment: Glutathione affinity purification of Ring-domain deleted ΔR-CHFR and PARP1 in HEK293 cells; format: cell-based; conditions: increasing concentrations, 16 hours, ΔR-CHFR construct
Procedure: (§1) HEK293 cells were stably transfected with the pDEST27-AR-CHFR construct. Deletion of the RING domain in this construct leads to both stable CHFR and PARP1 expression that is unaltered by treatment with increasing concentrations of ‘A3’ for 16 hours. Nonetheless, the interaction between glutathione-affinity purified CHFR-ΔR and PARP1 was decreased by ‘A3’ in a dose dependent fashion. A549 cells were incubated for 16.5 hrs with MG132 and indicated A3 concentration for 16 hrs. At 10 uM A3 concentration CHFR staining is diminished in the nucleus Cells are stained with CHFR.
(§2) In an attempt to generate possible lead compounds for the pharmacologic inhibition of the CHFR-PARP1 interaction, a high throughput computational screen of 5,256,508 chemical structures in the MCULE database of purchasable compounds using the AutoDockVina algorithm against the published crystal structure of the CHFR-PBZ domain was performed. The 10 most promising ‘hits’ based on Autodock Vina docking scores (<−9.7) were selected for further characterization. Commercially available compounds were tested for their impact on nuclear CHFR levels (FIG. 3A). […] The impact of the above referenced compounds on the PARP1/CHFR interaction were evaluated. HEK293 cells were transfected with GST tagged PARP1 and the interaction with CHFR determined in pull down assays for those 4 compounds. […]

A549 cells = experiment: Colony formation assays in A549 cells transfected with shRNA; format: cell-based
Procedure: Various cell lines of different tissues of origin and with different CHFR expression status were exposed to 1 hour of docetaxel and 72 hours of ‘A3’. Effects were defined as 1−colony count (treatment)/colony count (control). The nature of the interaction between the two compounds was analyzed by the Bliss additivity method. […] For subsequent colony formation assays, cell lines were characterized into CHFR expressing vs. CHFR deficient cell lines by Western-Blot.
FIG. 4D knock-down of either CHFR or PARP1 in A549 cells alleviates the synergy that is observed in A549 cells transfected with scrambled shRNA. (*=synergy)
Finally, colony formation assays were performed on a panel of cell lines of different cancer types such as lung-, breast-, and colon cancer.

CHFR [1] = molecular target: T1, CHFR (Homo sapiens, UniProt Q96EP1); experiment: Nuclear localization of CHFR (staining) in A549 cells with MG-132; format: cell-based; set-up: endogenous in cells; host or cells: A549; conditions: A3 in combination with MG-132, A549 cells
T1 sequence (Q96EP1 1-664): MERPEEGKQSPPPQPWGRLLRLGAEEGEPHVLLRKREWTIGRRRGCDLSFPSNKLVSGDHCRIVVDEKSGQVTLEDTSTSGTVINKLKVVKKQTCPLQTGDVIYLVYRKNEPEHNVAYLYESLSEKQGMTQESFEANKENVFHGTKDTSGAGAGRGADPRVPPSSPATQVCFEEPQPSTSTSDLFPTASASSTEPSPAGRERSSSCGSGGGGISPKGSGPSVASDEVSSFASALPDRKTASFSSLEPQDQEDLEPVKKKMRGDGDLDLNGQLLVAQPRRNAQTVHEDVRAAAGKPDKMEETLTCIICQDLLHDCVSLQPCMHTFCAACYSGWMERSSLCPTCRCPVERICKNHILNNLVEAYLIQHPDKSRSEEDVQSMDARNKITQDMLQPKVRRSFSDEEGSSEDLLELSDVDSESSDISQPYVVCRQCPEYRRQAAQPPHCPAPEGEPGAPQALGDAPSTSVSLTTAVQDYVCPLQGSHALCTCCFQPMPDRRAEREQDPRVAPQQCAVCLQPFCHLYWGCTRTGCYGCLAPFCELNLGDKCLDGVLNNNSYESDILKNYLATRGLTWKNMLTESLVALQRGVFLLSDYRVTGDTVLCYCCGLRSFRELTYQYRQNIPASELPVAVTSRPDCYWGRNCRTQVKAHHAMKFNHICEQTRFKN
Procedure: as §1, §2

CHFR [2] = molecular target: T1, CHFR; experiment: CHFR immunohistochemistry in A549 tumor xenografts; format: in vivo, nude mice; set-up: endogenous in cells; host or cells: A549 cells grown as flank xenografts in nude mice; conditions: single ip injection 10 mg/kg
Procedure: 4 hrs after i.p. injection a significant reduction in nuclear CHFR staining was observed, indicating an in vivo reproducible pharmacodynamic effect of ‘A3’.
‘A3’ is capable of disrupting the interaction between CHFR and PARP1 in vitro, leading to a depletion of CHFR expression and to sensitization towards the cytotoxic effects of taxanes. The impact of ‘A3’ administration on lung tumor xenografts was evaluated. A549 NSCLC cells were injected into the flank of nude mice and allowed to establish for approximately 14 days. Once tumors had reached a volume about 100 mm3, mice received a single ip injection of ‘A3’ at 10 mg/kg. Mice were then euthanized at 1, 2, 4 and 24 hours after and CHFR in the xenografts was analyzed by immunohistochemistry (FIG. 5A).

## Cc1ccc(N2C(=O)NC(=O)C(=Cc3cn(Cc4ccccc4)c4ccccc34)C2=O)cc1C [A3, 5-((1-benzyl-1H-indol-3-yl)methylene)-1-(3,4-dimethylphenyl)pyrimidine-2,4,6(1H,3H,5H)-trione]
CHFR-PARP1 interaction
  interaction between CHFR-ΔR and PARP1: dose dependent inhibition of the interaction between CHFR and PARP1
A549 cells; A549 after CHFR or PARP1 knockdown
  synergy between A3 and docetaxel, colony formation: not after CHFR or PARP1 knockdown
A549 cells; A549 scrambled shRNA
  synergy between A3 and docetaxel, colony formation: Synergy between A3 and docetaxel was maintained only in the A549 scramble cell line
CHFR [1]
  nuclear localization of CHFR: depletion of nuclear CHFR and accumulation of cytoplasmic CHFR
CHFR [2]; 24 hr time point
  nuclear CHFR expression in xenografts: restored to baseline levels
CHFR [2]; after 4 hours
  nuclear CHFR expression in xenografts: Significant suppression of nuclear CHFR expression
